Assays:
KV1.3 [1] = target: T1, KV1.3 (Homo sapiens, UniProt P22001); assay: KV1.3 inhibition, manual voltage-clamp on Xenopus laevis oocytes; type: cell-based; conditions: 10 μM; manual voltage-clamp on Xenopus laevis oocytes
Protocol: (§1) Stage V–VI oocytes were isolated by partial ovariectomy from Xenopus laevis frogs (African clawed frogs). […] After anaesthetizing the frogs by a 15-min submersion in 0.1% tricaine methanesulfonate (amino benzoic acid ethyl ester; Merck, Kenilworth, NJ, USA), pH 7.0, the oocytes were collected. The isolated oocytes were then washed with a 1.5 mg/mL collagenase solution for 2 h to remove the follicle layer.
(§2) Ion channels (Kv1.x, Kv2.1, Kv4.2, Kv10.1) were expressed in Xenopus laevis oocytes by linearization of the plasmids and subsequent in vitro transcription using a commercial T7 or SP6 mMESSAGE mMACHINE transcription kit (Ambion, Carlsbad, California, USA). Defolliculated Xenopus oocytes were then injected with 20–50 nL of the cRNA at a concentration of 1 ng/nL using a micro-injector (Drummond Scientific1, Broomall, PA, USA). The oocytes were incubated in a solution containing (in mM): NaCl, 96; KCl, 2; CaCl2, 1.8; MgCl2, 2 and HEPES, 5 (pH 7.5), supplemented with 50 mg/L gentamycin sulfate and 90 mg/L theophylline.
(§3) Two-electrode voltage-clamp recordings were performed at room temperature (18–22 °C) using a Geneclamp 500 amplifier (Molecular Devices, San Jose, CA, USA) and pClamp data acquisition (Axon Instruments, Union City, CA, USA) and using an integrated digital TEVC amplifier controlled by HiClamp, an automated Voltage-Clamp Screening System (Multi Channel Systems MCS GmbH, Reutlingen, Germany). Whole-cell currents from oocytes were recorded 1–4 days after injection. The bath solution composition was ND96 (in mM): NaCl, 96; KCl, 2; CaCl2, 1.8; MgCl2, 2 and HEPES, 5 (pH 7.5). Voltage and current electrodes were filled with a 3 M solution of KCl in H2O. […] The elicited Kv1.x, Kv2.1, Kv4.2 and Kv10.1 currents were filtered at 0.5 kHz and sampled at 2 kHz using a four-pole low-pass Bessel filter. Leak subtraction was performed using a P/4 protocol.
(§4) For the electrophysiological analysis of the compounds, a number of protocols were applied from a holding potential of −90 mV. Currents for Kv1.x, Kv2.1, Kv4.2 and Kv10.1 were evoked by 1 s depolarizing pulses either to 0 mV or to a range of voltage steps between −80 mV and +40 mV. For the analysis of the data, only the inhibition at the 0 mV step was used. The concentration dependency of all compounds was assessed by measuring the current inhibition in the presence of increasing compound concentrations. […] From this stock solution, adequate dilutions with a maximum of 0.5% DMSO were made for testing.
(§5) All electrophysiological data (Figure S1) are presented as means ± S.E.M of n ≥ three independent experiments unless otherwise indicated. […] The Dunnett test and one-way ANOVA were performed to calculate the significance of the induced inhibition compared to the control.

KV1.3 [2] = target: T1, KV1.3; assay: KV1.3 inhibition, HiClamp on Xenopus laevis oocytes; type: cell-based; conditions: Xenopus laevis oocytes (marked * in Table 2)
Protocol: as §1, §2, §3, §4, §5

KV4.2 = KV4.2 (Homo sapiens, UniProt Q9NZV8); assay: Selectivity, HiClamp Xenopus laevis heterologous expression system, KV4.2; type: cell-based; conditions: 10 µM, oocytes
Chain of KV4.2 (Q9NZV8 whole entry): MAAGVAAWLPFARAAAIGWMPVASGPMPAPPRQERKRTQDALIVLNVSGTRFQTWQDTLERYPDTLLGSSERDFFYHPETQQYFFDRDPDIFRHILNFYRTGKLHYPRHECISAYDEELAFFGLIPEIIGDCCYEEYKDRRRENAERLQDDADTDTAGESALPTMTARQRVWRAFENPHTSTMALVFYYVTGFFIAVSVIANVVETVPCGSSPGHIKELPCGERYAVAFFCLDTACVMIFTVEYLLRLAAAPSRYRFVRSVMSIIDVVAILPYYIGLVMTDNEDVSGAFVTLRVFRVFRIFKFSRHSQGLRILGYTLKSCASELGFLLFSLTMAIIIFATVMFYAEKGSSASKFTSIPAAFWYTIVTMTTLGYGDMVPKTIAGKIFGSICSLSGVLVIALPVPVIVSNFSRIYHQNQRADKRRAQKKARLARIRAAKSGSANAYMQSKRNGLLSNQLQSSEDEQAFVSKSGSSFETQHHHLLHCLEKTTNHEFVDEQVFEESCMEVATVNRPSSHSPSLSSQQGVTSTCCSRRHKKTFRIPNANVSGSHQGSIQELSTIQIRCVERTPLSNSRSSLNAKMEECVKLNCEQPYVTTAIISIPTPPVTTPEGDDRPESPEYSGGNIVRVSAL
Protocol: as §2, with “theophylline. […]” for “theophylline.”
(§6) Two-electrode voltage-clamp recordings were performed at room temperature (18–22 °C) using a Geneclamp 500 amplifier (Molecular Devices, San Jose, CA, USA) and pClamp data acquisition (Axon Instruments, Union City, CA, USA) and using an integrated digital TEVC amplifier controlled by HiClamp, an automated Voltage-Clamp Screening System (Multi Channel Systems MCS GmbH, Reutlingen, Germany). Whole-cell currents from oocytes were recorded 1–4 days after injection. […]
(§7) For the electrophysiological analysis of the compounds, a number of protocols were applied from a holding potential of −90 mV. […] The concentration dependency of all compounds was assessed by measuring the current inhibition in the presence of increasing compound concentrations. […]

KV1.4 = KV1.4 (Homo sapiens, UniProt P22459); assay: Selectivity, HiClamp Xenopus laevis heterologous expression system, KV1.4; type: cell-based; conditions: 10 µM; HiClamp, oocytes
Chain of KV1.4 (P22459 whole entry): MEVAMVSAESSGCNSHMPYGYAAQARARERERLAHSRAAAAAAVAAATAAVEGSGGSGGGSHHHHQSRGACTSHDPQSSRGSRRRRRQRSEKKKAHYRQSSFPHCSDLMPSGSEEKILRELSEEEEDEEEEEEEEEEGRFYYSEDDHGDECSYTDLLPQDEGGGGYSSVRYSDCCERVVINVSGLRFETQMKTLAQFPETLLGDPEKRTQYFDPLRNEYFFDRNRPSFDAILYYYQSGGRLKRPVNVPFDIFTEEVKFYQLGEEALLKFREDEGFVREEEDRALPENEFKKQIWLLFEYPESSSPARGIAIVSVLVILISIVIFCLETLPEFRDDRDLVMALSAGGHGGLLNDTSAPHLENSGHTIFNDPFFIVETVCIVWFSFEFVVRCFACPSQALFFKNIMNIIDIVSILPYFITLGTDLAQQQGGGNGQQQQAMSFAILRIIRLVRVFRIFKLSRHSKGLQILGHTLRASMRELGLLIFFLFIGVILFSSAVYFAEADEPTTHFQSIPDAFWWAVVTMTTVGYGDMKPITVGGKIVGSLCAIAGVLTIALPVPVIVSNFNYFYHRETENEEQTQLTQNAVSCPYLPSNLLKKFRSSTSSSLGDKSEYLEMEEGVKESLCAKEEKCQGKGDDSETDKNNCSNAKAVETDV
Protocol: as §2, with “theophylline. After ex vivo translation, the ion channels were correctly inserted in the cell membrane of the oocytes.” for “theophylline.”
(§8) Two-electrode voltage-clamp recordings were performed at room temperature (18–22 °C) using a Geneclamp 500 amplifier (Molecular Devices, San Jose, CA, USA) and pClamp data acquisition (Axon Instruments, Union City, CA, USA) and using an integrated digital TEVC amplifier controlled by HiClamp, an automated Voltage-Clamp Screening System (Multi Channel Systems MCS GmbH, Reutlingen, Germany). Whole-cell currents from oocytes were recorded 1–4 days after injection. The bath solution composition was ND96 (in mM): NaCl, 96; KCl, 2; CaCl2, 1.8; MgCl2, 2 and HEPES, 5 (pH 7.5). Voltage and current electrodes were filled with a 3 M solution of KCl in H2O. […]
as §7
(§9) All electrophysiological data (Figure S1) are presented as means ± S.E.M of n ≥ three independent experiments unless otherwise indicated. All data were analyzed using pClamp Clampfit 10.4 (Molecular Devices, Downingtown, PA, USA), OriginPro 9 (Originlab, Northampton, MA, USA), GraphPad Prism 8 software (GraphPad Software, Inc., San Diego, CA, USA) and DataMining (Multi Channel Systems MCS GmbH, Reutlingen, Germany). […]

KV1.5 = KV1.5 (Homo sapiens, UniProt P22460); assay: Selectivity, HiClamp Xenopus laevis heterologous expression system, KV1.5; type: cell-based; conditions: 10 µM; HiClamp, oocytes
Chain of KV1.5 (P22460 whole entry): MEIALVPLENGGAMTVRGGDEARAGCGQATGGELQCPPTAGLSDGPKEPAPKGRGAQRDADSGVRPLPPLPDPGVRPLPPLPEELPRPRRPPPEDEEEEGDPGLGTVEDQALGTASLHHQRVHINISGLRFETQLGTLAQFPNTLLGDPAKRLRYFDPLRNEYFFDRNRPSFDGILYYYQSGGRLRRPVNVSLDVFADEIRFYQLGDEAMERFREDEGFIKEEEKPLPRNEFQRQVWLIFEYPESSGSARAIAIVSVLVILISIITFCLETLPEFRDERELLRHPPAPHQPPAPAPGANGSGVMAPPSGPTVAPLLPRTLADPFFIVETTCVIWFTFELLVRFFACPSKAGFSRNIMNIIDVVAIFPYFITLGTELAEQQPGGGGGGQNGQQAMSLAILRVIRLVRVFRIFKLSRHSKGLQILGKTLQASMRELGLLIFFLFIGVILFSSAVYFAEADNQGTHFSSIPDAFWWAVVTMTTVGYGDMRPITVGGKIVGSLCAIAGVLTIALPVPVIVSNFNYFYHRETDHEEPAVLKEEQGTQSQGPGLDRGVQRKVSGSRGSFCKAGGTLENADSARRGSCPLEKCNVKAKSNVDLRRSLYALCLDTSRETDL
Protocol: as §2, with “theophylline. After ex vivo translation, the ion channels were correctly inserted in the cell membrane of the oocytes.” for “theophylline.”
(§10) Two-electrode voltage-clamp recordings were performed at room temperature (18–22 °C) using a Geneclamp 500 amplifier (Molecular Devices, San Jose, CA, USA) and pClamp data acquisition (Axon Instruments, Union City, CA, USA) and using an integrated digital TEVC amplifier controlled by HiClamp, an automated Voltage-Clamp Screening System (Multi Channel Systems MCS GmbH, Reutlingen, Germany). Whole-cell currents from oocytes were recorded 1–4 days after injection. The bath solution composition was ND96 (in mM): NaCl, 96; KCl, 2; CaCl2, 1.8; MgCl2, 2 and HEPES, 5 (pH 7.5). Voltage and current electrodes were filled with a 3 M solution of KCl in H2O. Resistances of both electrodes were kept between 0.5 and 1.5 MΩ. The elicited Kv1.x, Kv2.1, Kv4.2 and Kv10.1 currents were filtered at 0.5 kHz and sampled at 2 kHz using a four-pole low-pass Bessel filter. Leak subtraction was performed using a P/4 protocol.
as §4
(§11) All electrophysiological data (Figure S1) are presented as means ± S.E.M of n ≥ three independent experiments unless otherwise indicated. All data were analyzed using pClamp Clampfit 10.4 (Molecular Devices, Downingtown, PA, USA), OriginPro 9 (Originlab, Northampton, MA, USA), GraphPad Prism 8 software (GraphPad Software, Inc., San Diego, CA, USA) and DataMining (Multi Channel Systems MCS GmbH, Reutlingen, Germany). The Dunnett test and one-way ANOVA were performed to calculate the significance of the induced inhibition compared to the control.

KV1.2 = KV1.2 (Homo sapiens, UniProt P16389); assay: Selectivity, HiClamp Xenopus laevis heterologous expression system, KV1.2; type: cell-based; conditions: 10 µM; HiClamp, oocytes
Chain of KV1.2 (P16389 whole entry): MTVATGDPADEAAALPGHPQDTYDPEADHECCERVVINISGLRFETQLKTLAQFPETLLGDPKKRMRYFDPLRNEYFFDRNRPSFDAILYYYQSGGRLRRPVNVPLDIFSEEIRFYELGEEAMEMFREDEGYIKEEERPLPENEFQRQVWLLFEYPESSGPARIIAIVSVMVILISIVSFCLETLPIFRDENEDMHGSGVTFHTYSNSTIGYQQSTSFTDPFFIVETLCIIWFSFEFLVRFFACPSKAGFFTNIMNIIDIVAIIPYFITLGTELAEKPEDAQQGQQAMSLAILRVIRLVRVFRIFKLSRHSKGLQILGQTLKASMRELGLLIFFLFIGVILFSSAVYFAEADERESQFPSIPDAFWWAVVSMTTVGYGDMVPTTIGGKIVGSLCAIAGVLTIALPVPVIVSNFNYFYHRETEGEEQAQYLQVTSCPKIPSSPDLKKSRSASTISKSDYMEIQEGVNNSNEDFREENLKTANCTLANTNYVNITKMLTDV
Protocol: as §2, with “theophylline. After ex vivo translation, the ion channels were correctly inserted in the cell membrane of the oocytes.” for “theophylline.”
as §10, §4, §11

Panc-1 tumor spheroids = assay: Apoptosis (caspase 3/7 activity) in Panc-1 tumor spheroids; type: cell-based; conditions: with 8.9 µM cycloheximide
Protocol: Cell lines Panc-1 (ACC 783) and Colo-357 (CVCL_0221) were obtained through the validated collection of the pHioniC consortium (MSC-ITN 813834). Both cell lines were grown in RPMI1640, supplemented with 1 mM sodium pyruvate and 1% Glutamax (all Gibco Thermo-Fisher, Waltham, MA USA) 10%FBS (BioChrom, Berlin, Germany), at 5% CO2 and 37 °C in a humidified atmosphere.
Spheroids were cultured in round bottom ultra-low attachment 96-well plates (Corning). The optimal seeding densities were empirically determined (8000 cells/well for Colo-357 or 10,000 cells/well for Panc-1 spheroids. The cells were suspended in 2% Matrigel (Corning), centrifuged at 1000× g for 10 min and the spheroids were allowed to form in the incubator. Once the spheroids were formed, the treatments indicated together with 8.9 µM cycloheximide (as apoptosis sensitizer) were added and apoptosis was determined by live imaging in the Incucyte system in real time for approximately 60 h using Caspase-3/7 green reagent (Sartorius) as a reporter of apoptosis, which crosses the cell membrane and is cleaved by the activated Caspase-3/7, resulting in the fluorescent staining of nuclear DNA. Apoptosis on Panc-1 tumor spheroids is presented as integrated green fluorescence in the whole spheroid.

KV1.6 = KV1.6 (Homo sapiens, UniProt P17658); assay: Selectivity, HiClamp Xenopus laevis heterologous expression system, KV1.6; type: cell-based; conditions: 10 µM; HiClamp, oocytes
Chain of KV1.6 (P17658 whole entry): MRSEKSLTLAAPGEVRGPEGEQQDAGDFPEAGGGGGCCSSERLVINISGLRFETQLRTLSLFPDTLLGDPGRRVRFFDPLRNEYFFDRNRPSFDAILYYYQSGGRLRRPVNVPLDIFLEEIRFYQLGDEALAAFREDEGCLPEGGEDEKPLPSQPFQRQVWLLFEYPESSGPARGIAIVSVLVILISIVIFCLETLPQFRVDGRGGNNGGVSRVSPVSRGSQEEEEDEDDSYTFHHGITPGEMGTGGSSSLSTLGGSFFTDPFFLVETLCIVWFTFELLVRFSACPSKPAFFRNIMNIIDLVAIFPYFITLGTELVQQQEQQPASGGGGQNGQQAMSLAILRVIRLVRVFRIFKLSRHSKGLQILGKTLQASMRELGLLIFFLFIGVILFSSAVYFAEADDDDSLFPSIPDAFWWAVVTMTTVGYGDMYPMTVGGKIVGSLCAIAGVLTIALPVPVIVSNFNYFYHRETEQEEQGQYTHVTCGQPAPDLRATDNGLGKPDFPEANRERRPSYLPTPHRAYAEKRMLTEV
Protocol: as §2, with “theophylline. After ex vivo translation, the ion channels were correctly inserted in the cell membrane of the oocytes.” for “theophylline.”
as §10, §4, §11

[3] = test system: cancer cells (human SAOS2, mouse B16F10 melanoma, and human B-CLL); conditions: PAP-1 20 µM, clofazimine 1 or 10 µM, with MDRi cyclosporine H (4 µM) and probenecid (100 µM); cited from earlier work
KV1.1 = KV1.1 (Rattus norvegicus, UniProt P10499); assay: Selectivity, HiClamp Xenopus laevis heterologous expression system, KV1.1; type: cell-based; conditions: 10 µM; HiClamp, oocytes
Chain of KV1.1 (P10499 whole entry): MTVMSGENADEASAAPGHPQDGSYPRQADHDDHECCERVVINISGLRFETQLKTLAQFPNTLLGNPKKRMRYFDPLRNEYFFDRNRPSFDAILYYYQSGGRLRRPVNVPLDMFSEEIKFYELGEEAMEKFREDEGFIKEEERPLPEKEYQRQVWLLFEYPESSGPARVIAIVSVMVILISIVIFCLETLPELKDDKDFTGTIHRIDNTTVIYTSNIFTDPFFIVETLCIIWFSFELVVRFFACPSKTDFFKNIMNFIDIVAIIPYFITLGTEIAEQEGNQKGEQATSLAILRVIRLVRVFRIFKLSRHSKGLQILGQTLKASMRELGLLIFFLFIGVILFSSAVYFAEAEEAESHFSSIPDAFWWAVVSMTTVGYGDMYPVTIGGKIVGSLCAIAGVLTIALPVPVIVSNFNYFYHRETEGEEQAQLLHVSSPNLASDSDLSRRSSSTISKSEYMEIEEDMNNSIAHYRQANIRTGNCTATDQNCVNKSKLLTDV
Protocol: as §2, with “theophylline. After ex vivo translation, the ion channels were correctly inserted in the cell membrane of the oocytes.” for “theophylline.”
as §10, §4, §11

KV10.1 = KV10.1 (Homo sapiens, UniProt O95259); assay: Selectivity, HiClamp Xenopus laevis heterologous expression system, KV10.1; type: cell-based; conditions: 10 µM; HiClamp, oocytes
Chain of KV10.1 (O95259 whole entry): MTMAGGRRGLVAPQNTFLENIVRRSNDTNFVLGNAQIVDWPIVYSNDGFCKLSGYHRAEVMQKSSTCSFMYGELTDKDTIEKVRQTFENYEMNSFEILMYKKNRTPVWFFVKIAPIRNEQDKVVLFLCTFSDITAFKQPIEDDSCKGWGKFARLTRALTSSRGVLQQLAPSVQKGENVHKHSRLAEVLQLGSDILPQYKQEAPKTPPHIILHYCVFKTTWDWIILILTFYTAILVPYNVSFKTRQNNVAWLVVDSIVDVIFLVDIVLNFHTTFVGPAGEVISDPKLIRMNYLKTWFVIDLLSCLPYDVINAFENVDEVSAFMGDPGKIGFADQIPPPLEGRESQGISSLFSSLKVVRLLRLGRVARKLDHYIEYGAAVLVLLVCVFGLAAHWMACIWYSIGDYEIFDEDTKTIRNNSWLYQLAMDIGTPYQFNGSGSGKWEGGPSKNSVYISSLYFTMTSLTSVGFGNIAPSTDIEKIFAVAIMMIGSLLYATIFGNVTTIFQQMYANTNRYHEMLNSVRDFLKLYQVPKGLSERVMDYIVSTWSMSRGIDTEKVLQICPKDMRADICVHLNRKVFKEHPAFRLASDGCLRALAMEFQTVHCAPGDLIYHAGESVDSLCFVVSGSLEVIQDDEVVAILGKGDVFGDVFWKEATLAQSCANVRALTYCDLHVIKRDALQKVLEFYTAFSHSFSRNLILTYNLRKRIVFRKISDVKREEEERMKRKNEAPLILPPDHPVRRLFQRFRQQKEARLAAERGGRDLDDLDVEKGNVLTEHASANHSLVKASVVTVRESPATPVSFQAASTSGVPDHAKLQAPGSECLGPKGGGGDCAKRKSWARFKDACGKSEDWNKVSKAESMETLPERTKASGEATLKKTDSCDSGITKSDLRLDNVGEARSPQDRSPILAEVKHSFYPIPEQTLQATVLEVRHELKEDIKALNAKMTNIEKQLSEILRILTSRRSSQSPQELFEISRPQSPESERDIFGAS
Protocol: as §2, with “theophylline. […]” for “theophylline.”
as §6, §7

KV2.1 = target: T2, KV2.1 (Homo sapiens, UniProt Q14721); assay: Selectivity, HiClamp Xenopus laevis heterologous expression system, KV2.1; type: cell-based; conditions: 10 µM; HiClamp, oocytes
T2 sequence (Q14721 1-858): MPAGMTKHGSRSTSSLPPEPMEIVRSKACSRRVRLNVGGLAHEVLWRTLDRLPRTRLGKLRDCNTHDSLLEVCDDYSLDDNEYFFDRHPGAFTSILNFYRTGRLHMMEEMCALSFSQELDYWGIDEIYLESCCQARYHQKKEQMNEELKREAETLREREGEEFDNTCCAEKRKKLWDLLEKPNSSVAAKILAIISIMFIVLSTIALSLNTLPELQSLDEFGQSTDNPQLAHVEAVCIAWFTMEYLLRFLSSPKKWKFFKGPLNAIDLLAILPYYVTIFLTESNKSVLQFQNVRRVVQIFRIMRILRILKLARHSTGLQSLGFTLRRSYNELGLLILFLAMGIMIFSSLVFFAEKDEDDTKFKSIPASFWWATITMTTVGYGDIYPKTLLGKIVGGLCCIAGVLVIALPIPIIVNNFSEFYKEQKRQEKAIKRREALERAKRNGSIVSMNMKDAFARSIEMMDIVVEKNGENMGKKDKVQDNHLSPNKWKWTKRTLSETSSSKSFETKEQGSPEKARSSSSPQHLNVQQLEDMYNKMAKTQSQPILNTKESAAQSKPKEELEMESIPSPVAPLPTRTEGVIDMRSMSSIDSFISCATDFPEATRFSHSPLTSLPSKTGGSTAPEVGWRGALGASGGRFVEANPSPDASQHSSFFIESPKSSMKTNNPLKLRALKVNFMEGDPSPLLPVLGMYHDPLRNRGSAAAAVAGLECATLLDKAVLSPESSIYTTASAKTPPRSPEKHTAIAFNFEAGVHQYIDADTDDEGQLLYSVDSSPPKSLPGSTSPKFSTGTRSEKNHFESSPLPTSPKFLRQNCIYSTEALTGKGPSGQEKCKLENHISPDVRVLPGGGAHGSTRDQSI
Protocol: as §2, with “theophylline. After ex vivo translation, the ion channels were correctly inserted in the cell membrane of the oocytes.” for “theophylline.”
as §8, §7, §9

Colo-357 = test system: Colo-357; design: method as in PMID 29034212; conditions: read-out: EC50 cell death; cited from earlier work
Panc-1 cell line = test system: Panc-1 cell line; design: method as in PMID 29034212; conditions: Panc-1 cell line; read-out: EC50 decrease of cell survival; cited from earlier work

T1 sequence (P22001 whole entry): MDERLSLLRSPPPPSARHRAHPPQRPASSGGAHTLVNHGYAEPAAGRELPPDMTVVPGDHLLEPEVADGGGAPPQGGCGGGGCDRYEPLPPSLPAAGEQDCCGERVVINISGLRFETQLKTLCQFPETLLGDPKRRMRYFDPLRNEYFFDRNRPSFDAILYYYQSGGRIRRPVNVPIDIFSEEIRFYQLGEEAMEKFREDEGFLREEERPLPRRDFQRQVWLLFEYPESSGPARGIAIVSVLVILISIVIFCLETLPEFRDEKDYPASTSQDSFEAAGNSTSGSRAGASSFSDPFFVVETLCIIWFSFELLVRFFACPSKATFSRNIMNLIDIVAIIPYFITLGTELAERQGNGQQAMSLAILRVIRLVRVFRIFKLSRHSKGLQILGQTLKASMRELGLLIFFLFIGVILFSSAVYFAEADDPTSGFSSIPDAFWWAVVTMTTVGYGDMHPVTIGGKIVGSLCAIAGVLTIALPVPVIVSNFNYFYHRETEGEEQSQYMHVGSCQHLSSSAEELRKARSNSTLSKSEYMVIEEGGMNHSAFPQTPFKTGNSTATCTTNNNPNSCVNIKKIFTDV

Compound: COc1ccc(C)cc1C(=O)NCC1(c2ccsc2)CCOCC1 [Compound 48]
- inhibition at 10 µM (KV1.3 [1]): 42 ± 6%

Compound: COc1ccccc1CC(=O)NCC1(c2ccsc2)CCOCC1 [Compound 49]
- inhibition at 10 µM (KV1.3 [1]): 43 ± 1%

Compound: COc1ccc(F)cc1C(=O)NCC1(c2ccsc2)CCOCC1 [Compound 50]
- inhibition at 10 µM (KV1.3 [1]): 47 ± 9%

Compound: COc1cc(C)ccc1C(=O)NCC1(c2ccsc2)CCOCC1 [Compound 51]
- IC50 (KV1.3 [2]): 2920 nM
- inhibition at 10 µM (KV1.3 [1]): 82 ± 1%

Compound: O=c1ccc2c(OCCCCOc3ccccc3)c3ccoc3cc2o1 [PAP-1 (1), PAP-1, reference compound]
- Effect on KV4.2 channel (KV4.2): no significant effects
- Effect on KV1.4 channel (KV1.4): no significant effects
- Effect on KV1.5 channel (KV1.5): no significant effects
- Effect on KV1.2 channel (KV1.2): no significant effects
- Induction of apoptosis in Panc-1 spheroids (Panc-1 tumor spheroids): did and induce significant apoptosis
- Effect on KV1.6 channel (KV1.6): no significant effects
- Induction of apoptosis in cancer cells [3]: induced mild apoptosis
- Effect on KV1.1 channel (KV1.1): no significant effects
- Effect on KV10.1 channel (KV10.1): no significant effects
- Effect on KV2.1 channel (KV2.1): no significant effects

Compound: O=c1ccc2c(OCCCCOc3ccc(CCC[P+](c4ccccc4)(c4ccccc4)c4ccccc4)cc3)c3ccoc3cc2o1 [PAPTP]
- EC50 (Colo-357): 3700 nM
- EC50 (Panc-1 cell line): ~3000 nM

Compound: O=C(NCCC[P+](c1ccccc1)(c1ccccc1)c1ccccc1)Oc1ccc(OCCCCOc2c3ccoc3cc3oc(=O)ccc23)cc1 [PCARBTP]
- EC50 (Colo-357): 2000 nM
- EC50 (Panc-1 cell line): ~6000 nM
